Patent publication US20260376293A1, “METHODS FOR STUDYING GPR158 PHARMACOLOGY AND IDENTIFICATION OF ITS LIGANDS” (UNIVERSITY OF FLORIDA RESEARCH FOUNDATION, INCORPORATED, priority 2022, published 2026)

Tested on: layer II-III pyramidal neurons of GPR158 KO mice
Assay: Whole cell recordings, layer II-III neurons, GPR158 KO mice
Assay type: cell-based, mouse
Settings: for rheobase current / number of action potentials fired / resting membrane potential: 1 mM, GPR158 KO; for number of action potentials fired: 200 pA current ramp; for resting membrane potential: layer II-III
Method: FIGS. 14A-14H. Effect of glycine on neuronal excitability. A) Schematic of the electrophysiological recordings in slice preparation targeting mPFC neurons of layer II-III. Experiments were conducted with a cocktail of synaptic blockers: picrotoxin (100 μM) (blockade of GABAA receptor chloride channels), strychnine (1 μM) (antagonist of glycine and acetylcholine ionotropic receptors), CNQX (20 μM) (AMPA receptors antagonist), and APV (50 μM) (NMDAR antagonist). B) Representative traces of voltage responses to a 200 pA current ramp injection under control conditions and after bath application of glycine (1 mM) in WT mice. C) Quantification of changes in excitability by number of action potentials fired in response to 200 pA current ramp (n=8 neurons from 5 mice). Nonparametric t-test; Wilcoxon test, **p<0.01. D) Quantification of changes in excitability by rheobase current under control condition and glycine application (n=8 neurons from 5 mice). Nonparametric t-test; Wilcoxon test, **p<0.01. E) Representative traces of voltage responses to a 200 pA current ramp injection obtained from layer II-III pyramidal neurons in GPR158 KO mice under control conditions and during bath application of glycine (1 mM). F) Quantification of changes in excitability by number of action potentials fired in response to 200 pA current ramp (n=4 neurons/3 mice). Nonparametric t-test; Wilcoxon test, ns=p>0.05. G) Quantification of changes in excitability by rheobase current under control condition and glycine application (n=4 neurons/3 mice). Nonparametric t-test; Wilcoxon test, ns=p>0.05. H) Schematic representation of the proposed mechanism of glycine effects on mGlyR. In 14C, 14D, 14F, and 14G, solid circles (Ctrl), circles with no fill (Glycine), columns with no fill (Ctrl), and columns with dotted fill (Glycine).
FIGS. 15A-15H. Effect of glycine and taurine on excitability of layer V neurons and membrane properties of layer II/III neurons in wild type and GPR158 knockout mice. A) Representative traces of voltage responses to a 200 pA current ramp injection obtained from layer V pyramidal neurons in WT mice under control conditions and during bath application of glycine (1 mM). B) Quantification of glycine effects on neuronal excitability by number of action potentials fired in response to 200 pA current ramp under control condition and glycine application (n=4 neurons/3 mice). Nonparametric t-test; Wilcoxon test, ns=p>0.05. C) Quantification of glycine effects on neuronal excitability by rheobase current under control condition and glycine application (n=4 neurons/3 mice). Nonparametric t-test; Wilcoxon test, ns=p>0.05. D) Resting membrane potential of layer V pyramidal neurons in WT mice under control conditions and during bath application of glycine (n=4 neurons/3 mice). Nonparametric t-test; Wilcoxon test, ns=p>0.05. E) Resting membrane potential of layer II-III pyramidal neurons in WT mice under control conditions and during bath application of glycine (n=6 neurons/4 mice). Nonparametric t-test; Wilcoxon test, ns=p>0.05. F) Resting membrane potential of layer II-III pyramidal neurons in GPR158 KO mice under control conditions and during bath application of glycine (n=4 neurons/3 mice). Nonparametric t-test; Wilcoxon test, ns=p>0.05. G) Resting membrane potential under control conditions and during bath application of taurine (n=9 neurons/5 mice). Paired t-test, p=0.4809. H) Resting membrane potential under control conditions and during bath application of taurine (n=5 neurons/4 mice) Nonparametric t-test; Wilcoxon test, ns=p>0.05, p>0.9999. In FIGS. 15B, 15C, 15D, 15E, and 15F, solid circles (Ctrl), circles with angled-line fill (Glycine), columns with no fill (Ctrl), columns with angled-line fill (Glycine). In 15G and 15H, solid circles (Ctrl), circles with no fill (Taurine), columns with no fill (Ctrl), columns with dotted fill (Taurine).
FIGS. 16A-16F Effect of taurine on neuronal excitability of layer II/III neurons. […]

Row | SMILES | rheobase current | number of action potentials fired | resting membrane potential | excitability of layer II-III neurons (Gpr158 KO, glycine 1 mM)
1 | NCC(=O)O [glycine] | ns | ns | ns | failed to alter excitability
2 | NCCS(=O)(=O)O [taurine, 2-aminoethanesulfonic acid] | ns | ns | ns | 
